Where two headings read alike, the source gives them in different places. Marks after values point to notes of the source that are not given here.
Key:
[1] = 2 weeks
influenza A virus = assay: Mouse influenza A model: prophylactic dose response and delayed treatment, survival and body weight loss; format: in vivo, mice; settings: 10 mg/kg BID
Description: The prophylactic dose response of Compound (1) was investigated in the mouse influenza A model. […] All of the mice that received vehicle alone succumbed to the infection by study day 9 and had lost, on average, ˜32% of their body weight (BW).
All vehicle controls succumbed to disease by study days 8 or 9.

[2] = test system: Influenza A/Victoria/3/75 (H3N2) virus; format: in vivo, BALB/c mice; settings: mouse, in vivo
[3] = test system: Influenza A/California/04/2009 (pndH1N1) virus; format: in vivo, BALB/c mice; settings: mouse, in vivo
influenza A = assay: Mouse model of influenza A: lung viral titers; format: in vivo, mice; settings: Study 1, 10 mg/kg BID from 24 h post infection for 5 days
[4] = test system: Influenza A/Vietnam/1203/2004 (H5N1) virus; format: in vivo, BALB/c mice; settings: 10 mg/kg p.o. twice a day for 10 days; Treatment (+48 h)
A/Puerto Rico/8/34 [5] = test system: A/Puerto Rico/8/34
influenza A/PR/8/34 = assay: In vivo combination of Compound (1) with zanamivir, influenza A challenge in mice; settings: no Compound (1)
Description: Efficiency quotient, a composite measure of survival, bodyweight loss and lung function (% survival/(% body weight loss at Day 8)*(Penh at Day 6)) is summarized in Table 19B.

A/Puerto Rico/8/34 [6] = format: cell-based, influenza A virus
[7] = in Nitromethane, ambient temperature
[8] = treatment start +24 h relative to infection
[9] = treatment start +48 h relative to infection
[10] = treatment start +72 h relative to infection
[11] = treatment start −2 h relative to infection
[12] = Zanamivir 0.3 mg/kg IN x 1, 24 h prior to infection
[13] = Zanamivir 1 mg/kg IN x 1, 24 h prior to infection
[14] = Zanamivir 3 mg/kg IN x 1, 24 h prior to infection

Cl.Cl.O.O=C(O)[C@H]1C2CCC(CC2)[C@@H]1Nc1nc(-c2c[nH]c3ncc(F)cc23)ncc1F.O=C(O)[C@H]1C2CCC(CC2)[C@@H]1Nc1nc(-c2c[nH]c3ncc(F)cc23)ncc1F [Form A HCl salt of Compound (1)]
Sol. [1]: 0.6 mg/mL
Sol. [1, 7]: <0.1 mg/mL

O=C(O)[C@H]1C2CCC(CC2)[C@@H]1Nc1nc(-c2c[nH]c3ncc(F)cc23)ncc1F [Form A free base Compound (1)]
Sol. [1]: <0.1 mg/mL
Sol. [1, 7]: 0.3 mg/mL

CCOC(=O)C1=C[C@@H](OC(CC)CC)[C@H](NC(C)=O)[C@@H](N)C1 [Oseltamivir, reference compound]
survival (influenza A virus; same experiment (prophylactic)): All of the oseltamivir-administered mice survived
protection from death (influenza A virus; only when dosing was initiated 24 h or less post infection): complete protection
Percent Body Weight Loss on Study Day 8 (influenza A virus; [8]): −28.9%
Percent Survival (influenza A virus; [8]): 100%
Percent Body Weight Loss on Study Day 8 (influenza A virus; [9]): −31.1%
Percent Survival (influenza A virus; [9]): 80%
Percent Body Weight Loss on Study Day 8 (influenza A virus; [10]): −31.3%
Percent Survival (influenza A virus; [10]): 0%
Percent Body Weight Loss on Study Day 8 (influenza A virus; [11]): −19.1%
Percent Survival (influenza A virus; [11]): 100%
MDD ± SD (mean day of death of mice that died on or before day 21) [2]: 7.0
Mean Lung Parameters (Day 6): Score (hemorrhage score 0-4) [2]: 1.7
Mean Lung Parameters (Day 6): Virus Titer [2]: 7.0 Log10 CCID50/g
Mean Lung Parameters (Day 6): Weight [2]: 218 mg
Survivors/Total [2]: 9/10***
Mean Lung Parameters (Day 6): Score (hemorrhage score 0-4) [3]: 1.0
Mean Lung Parameters (Day 6): Virus Titer [3]: 7.9 Log10 CCID50/g
Mean Lung Parameters (Day 6): Weight [3]: 178 mg
Survivors/Total [3]: 10/10***
Log10 Reduction vs. Vehicle (influenza A; study day 6): −0.15
Lung Viral Titer (influenza A; titers on study day 6): 6.05 Log10 TCID50
MDD ± SD (mean day of death of mice that died on or before day 21) [4]: 9.5 ± 1.2
Mean Lung Parameters (Day 6): Virus Titer [4]: 5.22 ± 0.38 Log10 CCID50/g
Survivors/Total [4]: 0/10
C.I. (combination index) values at the 50% effect level (A/Puerto Rico/8/34 [5]): 0.58

CC(=O)N[C@H]1[C@H]([C@H](O)[C@H](O)CO)OC(C(=O)O)=C[C@@H]1N=C(N)N [Zanamivir, reference compound]
Efficiency Quotient (% survival/(% body weight loss at Day 8)*(Penh at Day 6)) (influenza A/PR/8/34; [12]): 0.44
Survival Rate (influenza A/PR/8/34; [12]): 37.5
Efficiency Quotient (% survival/(% body weight loss at Day 8)*(Penh at Day 6)) (influenza A/PR/8/34; [13]): 0.73
Survival Rate (influenza A/PR/8/34; [13]): 50
Efficiency Quotient (% survival/(% body weight loss at Day 8)*(Penh at Day 6)) (influenza A/PR/8/34; [14]): 0.73
Survival Rate (influenza A/PR/8/34; [14]): 62.5
Synergy Volume, 95% Confidence (A/Puerto Rico/8/34 [6]): 268
C.I. (combination index) values at the 50% effect level (A/Puerto Rico/8/34 [5]): 0.64

NC(=O)c1nc(F)c[nH]c1=O [favipiravir]
Synergy Volume, 95% Confidence (A/Puerto Rico/8/34 [6]): 317
C.I. (combination index) values at the 50% effect level (A/Puerto Rico/8/34 [5]): 0.89

CCC(CC)O[C@@H]1C=C(C(=O)O)C[C@H](N)[C@H]1NC(C)=O [oseltamivir carboxylate]
Synergy Volume, 95% Confidence (A/Puerto Rico/8/34 [6]): 312
